The test system of one experiment is U937 cells. Put plainly: Stable-isotope dimethyl labeling quantitative proteomics. It is filed as cell-based. The note with it: 0.3 μM shikonin (IC50), 24 h vs DMSO. The method, then:
To examine quantitative changes in the proteome of U937 leukemia cells after shikonin treatment, the dimethyl labeling proteomics analysis was performed. Briefly, 5 × 10^6 U937 cells were seeded in 10 mL RPMI 1640 medium in a 25 cm^2 culture flask. Subsequently, cells were treated with 0.3 μM shikonin (IC50) or DMSO as solvent control for 24 h. After incubation cells were washed with PBS and protein extraction was performed using the M-PER Mammalian Protein Extraction Reagent (Thermo Scientific, Germany) containing a protease inhibitor cocktail (Roche, Germany), cells were incubated with the extraction reagent for 40 min at 4°C. After incubation, cellular debris was removed by centrifugation at 14000 ×g for 15 min. Supernatants were transferred into new tubes and an acetone precipitation of the proteins was performed. After precipitation, the acetone was removed and the protein pellet in each of the tube was further diluted to 1 μg/μL with 50 mM TEABC and reduced with 5 mM TCEP for 1 h at 37°C, followed by alkylation using 2 mM MMTS for 45 min at room temperature. For the proteolytic digestion, the modified tube-gel digestion protocol was applied and the detergent residue was checked using the method described previously. Two 200 μg proteolytic protein mixtures from DMSO and shikonin treated cells were first dissolved in 200 μL of 100 mM TEABC (pH 8.5) and, respectively, mixed with 20 μL of formaldehyde and formaldehyde-13C, d2 (4%, diluted with H2O). After vortexing (5 min) and centrifugation, each of the sample solutions was mixed with 20 μL of 600 mM sodium cyanoborohydride solution. The sample solutions were vortexed (10 min) and centrifuged again and then allowed to react for 30 min at 25°C. To quench the reaction, ammonium hydroxide (7% in water, 10 μL) was added to each sample solution. Finally, 16 μL of formic acid was added to acidify each of the sample solutions and two samples were further combined for strong cation exchange (SCX) fractionation.
For SCX fractionation, the buffer SCX-A (5 mM KH2PO4 in 25% ACN at pH 3) and SCX-B (5 mM KH2PO4 and 350 mM KCl in 25% ACN at pH 3) were used as the mobile phase. The peptide mixtures were reconstituted in buffer SCX-A and then loaded into a PolySULFOETHYL A column (200 × 2.1 mm, 5 μm, 300Å, PolyLC, Columbia, MD) for 10 min at the flow rate of 0.2 mL/min. Peptides were fractionated using a 75 min gradient from 0 to 100% of buffer SCX-B. Fractions were collected every three minutes from the retention time of 10 to 55 min using a fraction collector (BioFrac Fraction Collector, BioRad Laboratories, Hercules, CA). The peptide mixtures in each of the fraction were further analyzed by the LC-MS/MS.
LC-MS/MS analysis was performed with a nanoUHPLC system (nanoACQUITY UPLC, Waters, Millford, MA) coupled online to the nanoelectrospray source of a hybrid quadrupole time-of-flight mass spectrometer (Q-TOF-MS) (SYNAPT HDMS G2, Waters, Manchester, UK). For LC-MS/MS analysis, water with 0.1% FA and ACN with 0.1% FA were used as the mobile phase. The sample was injected into a trap column (Symmetry C18, 5 μm, 180 μm × 20 mm, Waters, Milford, MA) and separated online with a reverse phase column (BEH C18, 1.7 μm, 75 μm × 250 mm, Waters, Milford, MA) at the flow rate of 300 nL/min using either a 95 min gradient with 5–90% ACN/water ratio. The mass spectrometry instruments were all operated in the positive ion mode, and data-dependent acquisition methods were applied for all experiments. The acquisition settings were set to one full MS scan (350–1600 m/z) with a scan time of 1 second and switched to six product ion scans (50–1900 m/z) with 0.4 second scan time when a precursor ion charge was 2+, 3+, or 4+, and the intensity was higher than 200 counts. The data files generated from LC-MS/MS were processed by UniQua and further analyzed by the MASCOT and Trans Proteomics Pipeline (TPP) 1 version 4.4 rev. 1, and the details and criteria of data processing were described previously.

The next experiment has as its system p-ribosomal protein S6. Put plainly: FlowCellect PI3K-mTOR signaling cascade assay (flow cytometry), p-ribosomal protein S6. To be noted: U937 cells, 0.3 μM shikonin, 24 h. Format: cell-based. The text has this: The FlowCellect PI3K-mTOR signaling cascade assay kit (Merck Millipore, Germany) was used to analyze the effect of shikonin on the PI3K-mTOR signaling pathway. The assay is based on two directly conjugated phospho-specific signaling antibodies against phosphorylated Akt and phosphorylated ribosomal S6 protein, which are both important signaling nodes of the mTOR cascade. The phosphorylation of Akt is indicative of the upstream PI3K signaling, marking the cells initiation into proliferation or cell survival. Phosphorylated-ribosomal S6 protein is indicative of downstream mTOR and p70S6K signaling leading to protein translation. The assay was performed according to the manufacture's protocol. Briefly, 1.5 × 10^6 U937 cells were treated with 0.3 μM shikonin or DMSO solvent control and incubated for 24 h. Subsequently, cells were fixed on ice for 20 min using the supplied fixation buffer. […] Subsequently, cells were measured in a LSR-Fortessa FACS analyzer (Becton-Dickinson, Germany) and shikonin fluorescence was compensated for the respective channels. For each sample, 1 × 10^4 cells were counted. The PerCP signal was measured with 488 nm excitation and detected using a 670/30 nm bandpass filter. The Alexa Fluor 488 signal was analyzed with 488 nm excitation and detected using a 530/30 nm bandpass filter. […] Cytographs were analyzed using FlowJo software (Celeza, Switzerland). […]
On the technique in general: Flow cytometry measures light scatter and fluorescence of single cells or particles in a stream.

“Also recorded” adds a separate entry of the source.

Regarding `CC(C)=CC[C@@H](O)C1=CC(=O)c2c(O)ccc(O)c2C1=O` [shikonin], in the experiment with U937 cells, the “FC protein 5′-Nucleotidase domain-containing protein 2” value was −5.4, the “FC protein 60S ribosomal protein L24” value is −7.5, the “FC protein ATP-dependent RNA helicase DDX3Y” value was −4.3 and the “FC protein Cell differentiation protein RCD1 homolog” value is on record as “+10.0”. In addition, in the experiment on U937 cells, the “FC protein Golgi phosphoprotein 3” value was −3.5, the “FC protein Heme oxygenase 1” value is “+14.3”, the “FC protein Heterogeneous nuclear ribonucleoprotein H2” value is listed as −4.5 and the “FC protein Hexokinase-1” value is recorded as −20.5. In addition, in the experiment with U937 cells, the “FC protein Histone H2B type 2-E” value was “+7.1”; the “FC protein Histone H4” value is “+11.1”; the “FC protein LIM domain and actin-binding protein 1” value is reported as “+6.7”; the “FC protein Leucine-rich repeat-containing protein 58” value was −3.5. Besides, in the experiment on U937 cells, the “FC protein Mannose-6-phosphate isomerase” value is reported as “+7.7”, the “FC protein Methylosome protein 50” value is recorded as −4.0, the “FC protein Neuronal-specific septin-3” value is on record as “+6.7” and the “FC protein Rho GTPase-activating protein 4” value is recorded as −3.1. Moreover, in the experiment with U937 cells, the “FC protein Schlafen family member 11” value is given as “+6.7”, the “FC protein Sorting nexin-17” value is listed as “+9.1”, the “FC protein Vacuolar protein sorting-associated protein 11 homolog” value was −20.0 and the “FC protein WD repeat-containing protein 3” value is recorded as “+12.1”. In the experiment on p-ribosomal protein S6, the “Phosphorylation of ribosomal protein S6” value is listed as “remained almost unchanged; also recorded: no effect”.

The values are drawn from article PMC3703888, “Integration of Different “-omics” Technologies Identifies Inhibition of the IGF1R-Akt-mTOR Signaling Cascade Involved in the Cytotoxic Effect of Shikonin against Leukemia Cells” (Evidence-based Complementary and Alternative Medicine : eCAM, 2013).
